Laboratory results reported in article PMC10239507, “Development of allosteric and selective CDK2 inhibitors for contraception with negative cooperativity to cyclin binding” (Nature Communications, 2023).

What was measured:
Experiment in all cases: biochemical
[1] = molecular target: T1, 371 kinases (kinase named in each endpoint) (Homo sapiens, UniProt P12931); settings: C-SRC
T1 construct: purchased Reaction Biology

[2] = molecular target: T2, 371 kinases (kinase named in each endpoint) (Homo sapiens, UniProt O75716); settings: STK16
T2 construct: purchased Reaction Biology

[3] = molecular target: T3, 371 kinases (kinase named in each endpoint) (Homo sapiens, UniProt Q14680); settings: MELK
T3 construct: purchased Reaction Biology

[4] = molecular target: T4, 371 kinases (kinase named in each endpoint) (Homo sapiens, UniProt P48729); settings: CK1A1
T4 construct: purchased Reaction Biology

[5] = molecular target: T5, 371 kinases (kinase named in each endpoint) (Homo sapiens, UniProt Q7KZI7); settings: MARK2/PAR-1BA
T5 construct: purchased Reaction Biology

[6] = molecular target: T6, 371 kinases (kinase named in each endpoint) (Homo sapiens, UniProt Q15569); settings: TESK1
T6 construct: purchased Reaction Biology

[7] = molecular target: T7, 371 kinases (kinase named in each endpoint) (Homo sapiens, UniProt Q15139); settings: PKCMU/PRKD1
T7 construct: purchased Reaction Biology

[8] = molecular target: T8, 371 kinases (kinase named in each endpoint) (Homo sapiens, UniProt Q14012); settings: CAMK1A
T8 construct: purchased Reaction Biology
T8 sequence (Q14012 whole entry): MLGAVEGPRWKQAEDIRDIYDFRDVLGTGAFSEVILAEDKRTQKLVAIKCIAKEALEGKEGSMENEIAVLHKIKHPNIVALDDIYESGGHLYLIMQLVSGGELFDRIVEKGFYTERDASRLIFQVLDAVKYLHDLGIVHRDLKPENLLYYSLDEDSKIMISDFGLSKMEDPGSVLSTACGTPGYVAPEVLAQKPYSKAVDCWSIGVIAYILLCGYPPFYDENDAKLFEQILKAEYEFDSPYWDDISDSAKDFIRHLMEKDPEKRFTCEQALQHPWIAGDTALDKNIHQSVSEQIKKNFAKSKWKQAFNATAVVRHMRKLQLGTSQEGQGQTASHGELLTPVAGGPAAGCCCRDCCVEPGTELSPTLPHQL

[9] = molecular target: T9, 371 kinases (kinase named in each endpoint) (Homo sapiens, UniProt Q86UX6); settings: STK32C/YANK3
T9 construct: purchased Reaction Biology

[10] = molecular target: T10, 371 kinases (kinase named in each endpoint) (Homo sapiens, UniProt P29320); settings: EPHA3
T10 construct: purchased Reaction Biology
T10 sequence (P29320 21-983): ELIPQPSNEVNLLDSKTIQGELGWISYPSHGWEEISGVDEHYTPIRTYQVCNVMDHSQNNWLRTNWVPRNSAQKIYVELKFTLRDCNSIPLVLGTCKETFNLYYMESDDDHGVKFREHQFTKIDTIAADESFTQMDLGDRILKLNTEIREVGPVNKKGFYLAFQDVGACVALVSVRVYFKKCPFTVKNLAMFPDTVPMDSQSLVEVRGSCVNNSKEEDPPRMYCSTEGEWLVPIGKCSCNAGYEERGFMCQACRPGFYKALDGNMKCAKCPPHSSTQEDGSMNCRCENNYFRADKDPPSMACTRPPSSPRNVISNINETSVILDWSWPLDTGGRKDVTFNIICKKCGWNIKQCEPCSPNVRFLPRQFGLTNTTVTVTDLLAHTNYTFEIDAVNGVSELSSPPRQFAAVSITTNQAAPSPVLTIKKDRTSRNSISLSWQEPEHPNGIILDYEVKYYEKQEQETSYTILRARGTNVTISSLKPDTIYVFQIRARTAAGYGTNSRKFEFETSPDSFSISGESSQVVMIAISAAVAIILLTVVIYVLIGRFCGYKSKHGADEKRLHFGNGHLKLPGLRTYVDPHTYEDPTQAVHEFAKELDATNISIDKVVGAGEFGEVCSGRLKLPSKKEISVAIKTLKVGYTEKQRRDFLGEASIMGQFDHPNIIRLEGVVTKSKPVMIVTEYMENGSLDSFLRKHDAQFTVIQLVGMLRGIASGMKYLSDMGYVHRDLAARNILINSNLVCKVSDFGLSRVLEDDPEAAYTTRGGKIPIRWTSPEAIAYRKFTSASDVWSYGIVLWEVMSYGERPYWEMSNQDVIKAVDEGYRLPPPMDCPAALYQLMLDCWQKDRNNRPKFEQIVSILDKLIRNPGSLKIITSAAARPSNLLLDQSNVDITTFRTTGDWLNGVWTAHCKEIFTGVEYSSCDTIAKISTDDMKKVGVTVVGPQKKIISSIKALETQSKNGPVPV

[11] = molecular target: T11, 371 kinases (kinase named in each endpoint) (Homo sapiens, UniProt P15735); settings: PHKG2
T11 construct: purchased Reaction Biology

[12] = molecular target: T12, 371 kinases (kinase named in each endpoint) (Homo sapiens, UniProt Q9NYY3); settings: PLK2
T12 construct: purchased Reaction Biology

[13] = molecular target: T13, 371 kinases (kinase named in each endpoint) (Homo sapiens, UniProt Q8TF76); settings: HASPIN
T13 construct: purchased Reaction Biology

[14] = molecular target: T14, 371 kinases (kinase named in each endpoint) (Homo sapiens, UniProt Q9H4B4); settings: PLK3
T14 construct: purchased Reaction Biology

[15] = molecular target: T15, 371 kinases (kinase named in each endpoint) (Homo sapiens, UniProt P50613); settings: CDK7/CYCLIN H
T15 construct: purchased Reaction Biology

[16] = molecular target: T16, 371 kinases (kinase named in each endpoint) (Homo sapiens, UniProt Q02779); settings: MLK2/MAP3K10
T16 construct: purchased Reaction Biology

[17] = molecular target: T17, 371 kinases (kinase named in each endpoint) (Homo sapiens, UniProt P11802)
T17 construct: purchased Reaction Biology
T17 sequence (P11802 whole entry): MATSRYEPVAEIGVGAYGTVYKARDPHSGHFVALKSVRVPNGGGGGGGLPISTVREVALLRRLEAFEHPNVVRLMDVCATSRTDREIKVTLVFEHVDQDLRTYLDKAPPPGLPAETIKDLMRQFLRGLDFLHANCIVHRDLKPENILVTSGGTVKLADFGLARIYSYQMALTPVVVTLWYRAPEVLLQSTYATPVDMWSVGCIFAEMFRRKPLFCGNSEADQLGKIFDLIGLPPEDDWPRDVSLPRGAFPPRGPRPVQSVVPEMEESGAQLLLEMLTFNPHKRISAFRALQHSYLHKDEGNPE

[18] = molecular target: T18, 371 kinases (kinase named in each endpoint) (Homo sapiens, UniProt Q16539); settings: P38A/MAPK14
T18 construct: purchased Reaction Biology
T18 sequence (Q16539 whole entry): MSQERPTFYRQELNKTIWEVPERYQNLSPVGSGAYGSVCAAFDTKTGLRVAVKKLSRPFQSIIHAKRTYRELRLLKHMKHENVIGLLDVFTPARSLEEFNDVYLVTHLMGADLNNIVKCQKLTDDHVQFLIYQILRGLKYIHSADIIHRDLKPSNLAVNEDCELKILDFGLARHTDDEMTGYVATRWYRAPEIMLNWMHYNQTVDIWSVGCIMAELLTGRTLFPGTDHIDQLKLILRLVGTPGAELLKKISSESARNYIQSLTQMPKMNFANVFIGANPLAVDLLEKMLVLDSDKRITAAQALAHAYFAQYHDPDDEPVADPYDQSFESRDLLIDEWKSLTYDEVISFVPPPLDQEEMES

[19] = molecular target: T19, 371 kinases (kinase named in each endpoint) (Homo sapiens, UniProt Q9H1R3); settings: MLCK2/MYLK2
T19 construct: purchased Reaction Biology

[20] = molecular target: T20, 371 kinases (kinase named in each endpoint) (Homo sapiens, UniProt Q8IVT5); settings: KSR1
T20 construct: purchased Reaction Biology

[21] = molecular target: T21, 371 kinases (kinase named in each endpoint) (Homo sapiens, UniProt O14965); settings: AURORA A
T21 construct: purchased Reaction Biology

[22] = molecular target: T22, 371 kinases (kinase named in each endpoint) (Homo sapiens, UniProt Q9HCP0); settings: CK1G1
T22 construct: purchased Reaction Biology

[23] = molecular target: T23, 371 kinases (kinase named in each endpoint) (Homo sapiens, UniProt Q92918); settings: HPK1/MAP4K1
T23 construct: purchased Reaction Biology

[24] = molecular target: T24, 371 kinases (kinase named in each endpoint) (Homo sapiens, UniProt Q13976); settings: PKG1A
T24 construct: purchased Reaction Biology

[25] = molecular target: T25, 371 kinases (kinase named in each endpoint) (Homo sapiens, UniProt P21802); settings: FGFR2
T25 construct: purchased Reaction Biology
T25 sequence (P21802 22-821): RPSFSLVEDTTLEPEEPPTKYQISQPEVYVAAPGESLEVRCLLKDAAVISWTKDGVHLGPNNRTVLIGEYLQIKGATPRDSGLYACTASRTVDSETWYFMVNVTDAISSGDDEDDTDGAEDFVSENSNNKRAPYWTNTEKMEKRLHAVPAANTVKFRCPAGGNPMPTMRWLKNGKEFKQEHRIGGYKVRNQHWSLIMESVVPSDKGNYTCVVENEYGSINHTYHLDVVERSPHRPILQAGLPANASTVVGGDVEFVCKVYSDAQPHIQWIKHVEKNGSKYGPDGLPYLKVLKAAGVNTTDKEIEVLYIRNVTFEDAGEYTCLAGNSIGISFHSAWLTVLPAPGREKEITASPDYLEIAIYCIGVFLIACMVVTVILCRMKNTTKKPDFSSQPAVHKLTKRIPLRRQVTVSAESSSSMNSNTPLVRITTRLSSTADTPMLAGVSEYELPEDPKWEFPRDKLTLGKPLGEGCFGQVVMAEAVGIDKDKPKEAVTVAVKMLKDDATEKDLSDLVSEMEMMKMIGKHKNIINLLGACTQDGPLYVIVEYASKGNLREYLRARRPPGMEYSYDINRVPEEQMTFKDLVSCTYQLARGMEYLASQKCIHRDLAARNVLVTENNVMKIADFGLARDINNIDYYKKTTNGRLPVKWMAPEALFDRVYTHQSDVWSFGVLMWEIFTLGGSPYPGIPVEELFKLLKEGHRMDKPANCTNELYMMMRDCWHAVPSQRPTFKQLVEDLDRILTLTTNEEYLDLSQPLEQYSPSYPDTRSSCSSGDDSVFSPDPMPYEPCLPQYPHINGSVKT

[26] = molecular target: T26, 371 kinases (kinase named in each endpoint) (Homo sapiens, UniProt Q6IQ55); settings: TTBK2
T26 construct: purchased Reaction Biology

[27] = molecular target: T27, 371 kinases (kinase named in each endpoint) (Homo sapiens, UniProt O00311); settings: CDC7/DBF4
T27 construct: purchased Reaction Biology

[28] = molecular target: T28, 371 kinases (kinase named in each endpoint) (Homo sapiens, UniProt P06213); settings: IR
T28 construct: purchased Reaction Biology

[29] = molecular target: T29, 371 kinases (kinase named in each endpoint) (Homo sapiens, UniProt Q8NEV4); settings: MYO3A
T29 construct: purchased Reaction Biology

[30] = molecular target: T30, 371 kinases (kinase named in each endpoint) (Homo sapiens, UniProt Q04912); settings: RON/MST1R
T30 construct: purchased Reaction Biology

[31] = molecular target: T31, 371 kinases (kinase named in each endpoint) (Homo sapiens, UniProt P34947); settings: GRK5
T31 construct: purchased Reaction Biology
T31 sequence (P34947 whole entry): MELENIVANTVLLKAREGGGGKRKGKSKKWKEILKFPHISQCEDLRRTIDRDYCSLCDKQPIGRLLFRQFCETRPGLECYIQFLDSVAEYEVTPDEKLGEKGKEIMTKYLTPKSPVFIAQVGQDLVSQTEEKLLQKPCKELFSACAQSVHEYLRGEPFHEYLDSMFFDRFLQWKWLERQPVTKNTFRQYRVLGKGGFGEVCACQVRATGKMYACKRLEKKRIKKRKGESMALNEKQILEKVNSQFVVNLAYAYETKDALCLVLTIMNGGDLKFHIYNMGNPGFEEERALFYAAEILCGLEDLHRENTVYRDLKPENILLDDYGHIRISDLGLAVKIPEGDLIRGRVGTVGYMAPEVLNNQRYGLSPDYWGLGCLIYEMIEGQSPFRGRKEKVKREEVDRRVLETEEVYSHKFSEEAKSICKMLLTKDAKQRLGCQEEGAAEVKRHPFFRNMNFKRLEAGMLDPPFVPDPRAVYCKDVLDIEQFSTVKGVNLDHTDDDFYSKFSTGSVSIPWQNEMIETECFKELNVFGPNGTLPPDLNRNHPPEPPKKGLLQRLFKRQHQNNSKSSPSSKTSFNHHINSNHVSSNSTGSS

[32] = molecular target: T32, 371 kinases (kinase named in each endpoint) (Homo sapiens, UniProt Q15759); settings: P38B/MAPK11
T32 construct: purchased Reaction Biology

[33] = molecular target: T33, 371 kinases (kinase named in each endpoint) (Homo sapiens, UniProt Q12866); settings: C-MER
T33 construct: purchased Reaction Biology
T33 sequence (Q12866 21-999): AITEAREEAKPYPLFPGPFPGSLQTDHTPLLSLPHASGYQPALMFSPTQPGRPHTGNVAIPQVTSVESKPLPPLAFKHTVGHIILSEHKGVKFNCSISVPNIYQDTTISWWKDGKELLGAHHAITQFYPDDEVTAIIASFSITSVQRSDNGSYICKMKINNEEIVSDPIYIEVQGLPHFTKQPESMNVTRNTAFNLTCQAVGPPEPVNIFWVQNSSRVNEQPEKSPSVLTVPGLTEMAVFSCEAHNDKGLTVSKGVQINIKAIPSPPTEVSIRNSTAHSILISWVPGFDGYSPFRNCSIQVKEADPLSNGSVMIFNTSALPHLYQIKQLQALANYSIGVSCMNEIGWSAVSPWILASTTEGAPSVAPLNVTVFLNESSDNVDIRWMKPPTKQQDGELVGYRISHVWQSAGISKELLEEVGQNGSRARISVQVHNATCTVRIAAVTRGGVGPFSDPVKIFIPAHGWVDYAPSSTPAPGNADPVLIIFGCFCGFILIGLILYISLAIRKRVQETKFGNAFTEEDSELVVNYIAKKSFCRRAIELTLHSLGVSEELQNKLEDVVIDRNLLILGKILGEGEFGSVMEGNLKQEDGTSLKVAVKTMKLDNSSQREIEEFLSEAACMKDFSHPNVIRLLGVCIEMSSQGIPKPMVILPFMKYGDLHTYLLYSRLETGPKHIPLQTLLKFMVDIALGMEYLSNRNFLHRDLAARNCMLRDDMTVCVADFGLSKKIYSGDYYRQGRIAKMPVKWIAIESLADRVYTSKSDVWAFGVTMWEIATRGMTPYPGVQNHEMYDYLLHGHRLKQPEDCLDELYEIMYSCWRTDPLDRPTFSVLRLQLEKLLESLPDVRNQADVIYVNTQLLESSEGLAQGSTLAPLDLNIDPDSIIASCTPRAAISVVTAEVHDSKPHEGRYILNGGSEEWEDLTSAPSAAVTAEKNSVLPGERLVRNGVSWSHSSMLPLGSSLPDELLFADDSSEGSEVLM

[34] = molecular target: T34, 371 kinases (kinase named in each endpoint) (Homo sapiens, UniProt O14578); settings: STK21/CIT
T34 construct: purchased Reaction Biology

[35] = molecular target: T35, 371 kinases (kinase named in each endpoint) (Homo sapiens, UniProt Q16566); settings: CAMK4
T35 construct: purchased Reaction Biology
T35 sequence (Q16566 whole entry): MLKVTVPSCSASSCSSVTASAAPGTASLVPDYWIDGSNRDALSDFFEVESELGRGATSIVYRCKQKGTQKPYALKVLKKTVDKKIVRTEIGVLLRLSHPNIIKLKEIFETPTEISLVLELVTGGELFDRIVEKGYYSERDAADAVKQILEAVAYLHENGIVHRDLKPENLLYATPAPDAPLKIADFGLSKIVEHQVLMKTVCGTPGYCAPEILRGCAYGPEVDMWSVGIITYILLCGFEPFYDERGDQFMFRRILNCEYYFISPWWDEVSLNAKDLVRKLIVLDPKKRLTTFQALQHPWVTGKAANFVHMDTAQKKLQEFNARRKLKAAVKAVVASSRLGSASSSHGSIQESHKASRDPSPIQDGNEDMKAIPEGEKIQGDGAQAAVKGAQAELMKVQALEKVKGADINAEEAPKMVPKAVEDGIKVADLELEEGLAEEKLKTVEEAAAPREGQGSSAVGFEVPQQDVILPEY

[36] = molecular target: T36, 371 kinases (kinase named in each endpoint) (Homo sapiens, UniProt Q96S53); settings: TESK2
T36 construct: purchased Reaction Biology

Work on O=C(O)c1cc(C(F)(F)F)ccc1NCCc1c[nH]c2cc(Br)ccc12 [Compound 5, 2-((2-(6-Bromo-1H-indol-3-yl)ethyl)amino)−5-(trifluoromethyl)benzoic Acid] yielded an activity at 10 µM [1] of 95.1 ± 0.2%, an activity at 10 µM [2] of 80.4 ± 1.1% and an activity at 10 µM [3] of 95.8 ± 3%. For the same compound, the activity at 10 µM [4] was 91.2 ± 0.3%, the activity at 10 µM [5] was 87.5 ± 0.7% and the activity at 10 µM [6] was 82.4 ± 1.3%. The activity at 10 µM [7] was 115.9 ± 0.9%, the activity at 10 µM [8] was 69.1 ± 1% and the activity at 10 µM [9] was 100.2 ± 0.6%. The activity at 10 µM [10] was 99.7 ± 1.6%, the activity at 10 µM [11] was 106.5 ± 0.1% and the activity at 10 µM [12] was 67.4 ± 0.7%. The activity at 10 µM [13] was 59.9 ± 1.3%, the activity at 10 µM [14] was 79.3 ± 3.7% and the activity at 10 µM [15] was 104 ± 3.6%. It also gave an activity at 10 µM [16] of 74.8 ± 2.2%, an activity at 10 µM ([17]; CDK4/CYCLIN D1) of 80.1 ± 2.6% and an activity at 10 µM ([17]; CDK4/CYCLIN D2) of 29.1 ± 0.1%. It also gave an activity at 10 µM ([17]; CDK4/CYCLIN D3) of 82.9 ± 0.6%, an activity at 10 µM [18] of 124.8 ± 0.6% and an activity at 10 µM [19] of 70.7 ± 0.3%. It also gave an activity at 10 µM [20] of 92.9 ± 2.5%, an activity at 10 µM [21] of 75.2 ± 1.8% and an activity at 10 µM [22] of 96.2 ± 0.3%. For the same compound, the activity at 10 µM [23] was 77.2 ± 0.7%, the activity at 10 µM [24] was 101 ± 1.8% and the activity at 10 µM [25] was 101.3 ± 0.5%. For the same compound, the activity at 10 µM [26] was 105 ± 1.1%, the activity at 10 µM [27] was 77.9 ± 2.9% and the activity at 10 µM [28] was 64.7 ± 1.1%. The activity at 10 µM [29] was 118 ± 3.4%, the activity at 10 µM [30] was 89.7 ± 2.7% and the activity at 10 µM [31] was 101 ± 1.1%. For the same compound, the activity at 10 µM [32] was 140 ± 2.3%, the activity at 10 µM [33] was 52.1 ± 1.5% and the activity at 10 µM [34] was 102.1 ± 0.3%. The activity at 10 µM [35] was 27.5 ± 6.5% and the activity at 10 µM [36] was 78.7 ± 0.8%.
